“Also recorded” adds a separate entry of the source. Like-named read-outs stand apart in the source and are kept apart here.
Assays:
[1] = test system: CCRF-CEM/MTX cell line; assay: Cytotoxic assay, reduced folate carrier deficient mutant; type: cell-based, human; details: impaired reduced folate carrier; for IC50: Homo sapiens
Experimental: (§1) The cytotoxic activity of the compounds was measured using CCRF-CEM human leukemia cells, as described previously (Boger, D. L., et al., Bioorg. Med. Chem. 1997, 5, 1847-1852). Two mutant cell lines, CCRF-CEM/MTX and CCRF-CEM/FPGS^− were used to determine the dependence on the reduced folate active transport system and folylpolyglutamate synthetase (FPGS), respectively (Jansen, G., et al., Cancer Res. 1989, 49, 2455-2459).

[2] = target: thymidylate synthetase (TS) (Homo sapiens, UniProt P04818); assay: Thymidylate synthetase inhibition; type: biochemical; details: for Ki: TS
[3] = Chemical stability; type: physicochemical
[4] = target: T1, E. coli GAR Tfase (Escherichia coli, UniProt P08179); assay: E. coli GAR Tfase inhibition; type: biochemical; details: for Ki: E. coli GAR Tfase
Experimental: (§2) GAR and AICAR Tfase inhibition studies were conducted as previously detailed^28 with the exception that the AICAR Tfase inhibition was conducted in the absence of 5 mM β-mercaptoethanol and screened with 10 nM enzyme, […] inhibitor and […] of cofactor. The DHFR inhibition study was conducted as previously detailed with 10 nM enzyme, […] H2F, […] NADPH and […] inhibitor.
The Ki values for the folate analogues were measured as previously described (Boger, D. L., et al., Bioorg. Med. Chem. 1997, 5, 1817-1830). Briefly, each compound was dissolved in dimethyl sulfoxide (DMSO) and then diluted in assay buffer. […] Thus, all assays were conducted by mixing 10 μM 10-formyl-5,8-dideazafolate (fDDF), 20 μM inhibitor in total volume of 1 mL buffer (0.1 M HEPES, pH 7.5) at 26° C., and the reaction initiated by the addition of 76 nM E. coli or human GAR Tfase. The assay monitors the deformylation of fDDF (Δε=18.9 mM^−1 cm^−1 at 295 nm) resulting from the transfer of the formyl group to β-GAR.

[5] = Solubility; type: physicochemical; details: pH 7-8
[6] = test system: CCRF-CEM cell line; assay: CCRF-CEM cytotoxic assay; type: cell-based, human; details: for IC50: Homo sapiens
Experimental: as §1

[7] = target: DHFR (Escherichia coli, UniProt P0ABQ4); assay: DHFR inhibition (101, 102); type: biochemical; details: for Ki: DHFR
[8] = test system: CCRF-CEM/FPGS^− cell line; assay: Cytotoxic assay, FPGS deficient mutant; type: cell-based, human; details: lacks folylpolyglutamate synthase
Experimental: as §1

[9] = target: human AICAR Tfase (Homo sapiens, UniProt P31939); assay: AICAR Tfase inhibition; type: biochemical; details: for Ki: AICAR Tfase
Experimental: as §2

[10] = target: T1, E. coli GAR Tfase; details: 10-formyl-TDAF, earlier studies; cited from earlier work
[11] = earlier studies; cited from earlier work
[12] = test system: CCRF-CEM cell line; details: earlier studies; cited from earlier work
[13] = target: T2, recombinant human GAR Tfase (rhGAR Tfase) (Homo sapiens, UniProt P22102); assay: Recombinant human GAR Tfase inhibition; type: biochemical
T2 construct: includes residues 808-1010 from the human trifunctional enzyme (purD-purM-purN); hexa-histidine (C); made in house; host or cells: E. coli BL21 (DE3) Gold, pet22b vector
T2 sequence (P22102 808-1010): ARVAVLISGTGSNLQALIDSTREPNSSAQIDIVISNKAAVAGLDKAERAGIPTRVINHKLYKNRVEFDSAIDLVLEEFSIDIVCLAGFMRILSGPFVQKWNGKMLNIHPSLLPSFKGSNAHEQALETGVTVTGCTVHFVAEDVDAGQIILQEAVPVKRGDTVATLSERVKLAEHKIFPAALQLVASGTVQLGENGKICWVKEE
Experimental: The gene was subcloned into the pet22b vector using the Ndel/Xhol cloning site with ahexa-histidine tag at the C-terminus. The plasmid was transformed into the E. coli expression strain BL21 (DE3) Gold. […] The purified protein was used in the inhibition assays, cytotoxic assays and crystallization experiments.
Briefly, each compound was dissolved in dimethyl sulfoxide (DMSO) and then diluted in assay buffer.

[14] = purines (hypoxanthine) absent in the media

For `Nc1nc(N)c(CCCC(C(=O)C(F)(F)F)c2ccc(C(=O)N[C@@H](CCC(=O)O)C(=O)O)cc2)c(=O)[nH]1` (stereo partly drawn) [Compound 101, N-{4-[4-(2,4-Diamino-6-oxo-1,6-dihydropyrimidin-5-yl)-1-(2,2,2-trifluoroacetyl)butyl]benzoyl}-L-glutamic acid], the “cytotoxic activity (in words)” value [1] was “lost activity”, the “inhibition of TS (in words)” value [2] was “inactive” and the Ki [2] was greater than 100000 nM. The “chemical stability (in words)” value [3] was “chemically stable”, the “stability at pH 7-8” value ([3]; pH 7-8 buffers in the presence of air, 7 days) was “excellent; also recorded: no decomposition or reaction” and the Ki [4] was 1900 nM. The solubility [5] was “excellent”, the IC50 ([6]; in the presence of media purines) was greater than 100000 nM and the IC50 [6, 14] was 16 nM. The “inhibition of DHFR (in words)” value [7] was “inactive”, the Ki [7] was greater than 100000 nM and the “cytotoxic activity (in words)” value [8] was “lacked or lost activity”. The “inhibition of AICAR Tfase (in words)” value [9] was “inactivity; also recorded: inactive” and the Ki [9] was greater than 100000 nM.

For `Nc1nc(N)c(CCCC(=O)c2ccc(C(=O)N[C@@H](CCC(=O)O)C(=O)O)cc2)c(=O)[nH]1` [Compound 14, N-{4-[4-(2,4-Diamino-6(1H)-pyrimidinon-5-yl)-1-oxo-but-1-yl]benzoyl}-L-glutamic Acid], the IC50 [1] was greater than 100000 nM, the “cytotoxic activity (in words)” value [1] was “lack of cytotoxic activity” and the “inhibition of / binding affinity for E. coli GAR Tfase (in words)” value [4] was “significantly less active”. The IC50 ([6]; purines absent in the media) was less than 200 nM, the “cytotoxic activity (in words)” value [8] was “inactivity” and the “inhibition of AICAR Tfase (in words)” value [9] was “inactive”.

For `Nc1nc(N)c(CCCC(CO)c2ccc(C(=O)N[C@@H](CCC(=O)O)C(=O)O)cc2)c(=O)[nH]1` (stereo partly drawn) [Compound 17, N-{4-[5-(2,4-Diamino-6(1H)-pyrimidinon-5-yl)-1-hydroxypent-2-yl]benzoyl}-L-glutamic Acid], the IC50 [1] was greater than 100000 nM, the “cytotoxic activity (in words)” value [1] was “lack of cytotoxic activity” and the “inhibition of / binding affinity for E. coli GAR Tfase (in words)” value [4] was “significantly less active”. For the same compound, the “cytotoxic activity (in words)” value [8] was “inactivity” and the “inhibition of AICAR Tfase (in words)” value [9] was “inactive”.

In the case of `Nc1nc2ccc(CC(C=O)c3ccc(C(=O)N[C@@H](CCC(=O)O)C(=O)O)cc3)cc2c(=O)[nH]1` (some centres unmarked) [Compound 103, 10-formyl-5,8,10-trideazafolic acid], the Ki [10] is given as 260 nM, the “chemical stability (in words)” value [11] is given as “poor stability; also recorded: facile oxidative decarbonylation” and the “cytotoxic activity (in words)” value [12] is given as “failed to exhibit effective cytotoxic activity”.

For `CN(C)N=CC(CCCc1c(N)nc(N)[nH]c1=O)c1ccc(C(=O)N[C@@H](CCC(=O)O)C(=O)O)cc1` (stereo partly drawn) [Compound 15, N{4-[5-(2,4-Diamino-6(1H)-pyrimidinon-5-yl)-1-(dimethylhydrazono)pent-2-yl]benzoyl}-L-glutamic Acid], the IC50 [1] was greater than 100000 nM, the “cytotoxic activity (in words)” value [1] was “lack of cytotoxic activity” and the Ki ([13]; rhGAR Tfase, read-out: Ki) was 170 nM. For the same compound, the “cytotoxic activity (in words)” value [8] was “inactivity; also recorded: lost cytotoxic activity” and the “fold less effective than 3” value ([9]; 15 vs 3) was 30 fold.

For `Nc1nc(N)c(CCCC(c2ccc(C(=O)N[C@@H](CCC(=O)O)C(=O)O)cc2)C(O)C(F)(F)F)c(=O)[nH]1` (stereo partly drawn) [Compound 102, N-{4-[4-(2,4-Diamino-6-oxo-1,6-dihydropyrimidin-5-yl)-1-(2,2,2-trifluoro-1-hydroxy-ethyl)butyl]benzoyl}-L-glutamic acid], the “cytotoxic activity (in words)” value [1] was “lost activity”, the Ki [2] was greater than 100000 nM and the “times less potent than 10-CF3CO-DDACTHF” value ([13]; comparator 101) was “ca. 50 times”. The Ki ([13]; rhGAR Tfase, read-out: Ki) was 900 nM, the IC50 ([6]; purines absent in the media) was 1100 nM and the Ki [7] was greater than 100000 nM. For the same compound, the “cytotoxic activity (in words)” value [8] was “lacked or lost activity”, the “inhibition of AICAR Tfase (in words)” value [9] was “inactivity” and the Ki [9] was greater than 100000 nM.

For `Nc1nc(N)c(CCCC(C=O)c2ccc(C(=O)N[C@@H](CCC(=O)O)C(=O)O)cc2)c(=O)[nH]1` (some centres unmarked) [Compound 3], the IC50 [1] was greater than 100000 nM, the “cytotoxic activity (in words)” value [1] was “lack of cytotoxic activity; also recorded: lost activity” and the “chemical stability (in words)” value [3] was “chemical instability; also recorded: facile oxidative decarbonylation”. For the same compound, the Ki [4] was 6000 nM, the Ki [13] was 14 nM and the IC50 [6, 14] was 60 nM. The “cytotoxic activity (in words)” value ([6]; media supplemented with a purine) was “no activity” and the “cytotoxic activity (in words)” value [8] was “inactivity; also recorded: lost cytotoxic activity”.
